What all share (type): biochemical
Assay [1] has as its target T1, recombinant human 17β-HSD1 (Homo sapiens, UniProt P14061).
T1 construct: made in house; host or cells: Sd9 (Sf9) insect cells, baculovirus (Bac to Bac Expression System)
T1 sequence (P14061 1-328): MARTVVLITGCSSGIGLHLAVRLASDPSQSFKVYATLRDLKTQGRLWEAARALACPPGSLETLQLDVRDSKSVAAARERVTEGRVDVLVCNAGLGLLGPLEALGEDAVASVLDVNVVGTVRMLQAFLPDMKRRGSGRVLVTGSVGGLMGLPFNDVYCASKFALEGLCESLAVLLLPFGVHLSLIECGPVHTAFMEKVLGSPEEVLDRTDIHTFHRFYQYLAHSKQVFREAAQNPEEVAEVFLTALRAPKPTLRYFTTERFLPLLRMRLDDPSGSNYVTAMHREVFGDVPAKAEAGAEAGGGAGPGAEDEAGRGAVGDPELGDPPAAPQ
The experiment in a line: Inhibition of recombinant human 17β-HSD1. The following applies: inhibitor 100 nM; 30 nM estrone, 1 mM NADPH, 30 min RT. The method, then:
17β-HSD1 production and isolation: Recombinant baculovirus was generated by the “Bac to Bac Expression System” (Invitrogen). Recombinant bacmid was transfected to Sd9 insect cells using “Cellfectin Reagent” (Invitrogen). 60 h later cells were harvested; the microsomal fraction was isolated as described by Puranen, T. J., Poutanen, M. H., Peltoketo, H. E., Vihko, P. T. and Vihko, R. K. (1994) Site-directed mutagenesis of the putative active site of human 17 β-hydroxysteroid dehydrogenase type 1. Biochem. J. 304: 289-293. Aliquots were stored frozen until determination of enzymatic activity.
Assay—Inhibition of recombinant human 17β-HSD1: Recombinant protein (1 μg/ml) was incubated in 20 mM KH2PO4 pH 7.4 with 30 nM estrone (including 800 000 cpm/ml of ^3H-estrone) and 1 mM NADPH for 30 min at RT, in the presence of the potential inhibitor at concentrations 1 μM or 0.1 μM. Inhibitor stock solutions were prepared in DMSO. Final concentration of DMSO was adjusted to 1% in all samples. The enzyme reaction was stopped by addition of 10% trichloroacetic acid (final concentration). Samples were centrifuged in a microtiter plate at 4000 rpm for 10 min. Supernatants were applied to reverse phase HPLC on a Waters Symmetry C18 column, equipped with a Waters Sentry Guard column. Isocratic HPLC runs were performed at RT at a flow rate of 1 ml/min in acetonitrile:water 48:52 as running solvent. Radioactivity was monitored in the eluate by a Scintillation Analyzer. Total radioactivity for estrone and estradiol were determined in each sample and percent conversion of estrone to estradiol was calculated according to the following formula:
(§1) [formula] Percent inhibition was calculated flowingly: % inhibition=100−% conversion

Assay [2] has as its target T2, recombinant human 17β-HSD2 (Homo sapiens, UniProt P37059).
T2 construct: made in house; host or cells: Sd9 (Sf9) insect cells, baculovirus (Bac to Bac Expression System)
T2 sequence (P37059 1-387): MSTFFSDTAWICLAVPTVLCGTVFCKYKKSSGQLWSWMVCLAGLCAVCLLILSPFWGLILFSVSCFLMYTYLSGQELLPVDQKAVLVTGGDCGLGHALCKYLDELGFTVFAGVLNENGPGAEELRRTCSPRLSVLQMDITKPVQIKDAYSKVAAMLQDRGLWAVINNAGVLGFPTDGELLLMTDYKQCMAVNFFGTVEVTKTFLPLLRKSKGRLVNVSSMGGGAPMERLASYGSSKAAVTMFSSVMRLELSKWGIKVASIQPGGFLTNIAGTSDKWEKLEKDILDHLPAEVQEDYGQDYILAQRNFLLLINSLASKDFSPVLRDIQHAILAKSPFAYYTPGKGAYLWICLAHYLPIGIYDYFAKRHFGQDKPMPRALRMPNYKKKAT
The experiment in a line: Inhibition of recombinant human 17β-HSD2. As to conditions: inhibitor 1 μM; 50 nM estradiol, 1 mM NADH, 30 min RT. The method, then: 17β-HSD2 production and isolation: Similarly to 17β-HSD1 the Recombinant baculovirus was generated by the “Bac to Bac Expression System” (Invitrogen). Recombinant bacmid was transfected to Sd9 insect cells using “Cellfectin Reagent” (Invitrogen). 60 h later cells were harvested and supernatant were fractionated by the following protocol: • cells were dissolved into 40 ml of A-buffer (40 mM TRIS, pH 8.0, 20% glycerol, 20 μM NAD, 0.4 mM PMSF, 150 mM NaCl, 0.5% dodecyl-β-maltoside+protease inhibitor cocktail) • cells were sonicated • lysate was incubated on ice for 15 min • lysate was centrifuged 5000 rpm 15 min, +4° C. • centrifugation of the supernatant 180 000 g 30 min, +4° C. • pellet was dissolved into 8 ml of A-buffer • not resuspended material was removed by centrifugation 5000 rpm min, +4° C. • the clear supernatant was divided into 100 μl aliquots and were stored frozen until determination of enzymatic activity.
The amount of 17β-HSD2 was analysed by immunoblotting and total protein concentration of each extract batch was determined.
Assay—Inhibition of recombinant human 17β-HSD2: Recombinant protein (4 μg/ml) was incubated in 20 mM KH2PO4 pH 8.5 with 50 nM estradiol (including 800 000 cpm/ml of ^3H-estradiol) and 1 mM NADH for 30 min at RT, in the presence of the potential inhibitor at concentrations 1 μM or 0.1 μM. Inhibitor stock solutions were prepared in DMSO. Final concentration of DMSO was adjusted to 1% in all samples. The enzyme reaction was stopped by addition of 10% trichloroacetic acid (final concentration). Samples were centrifuged in a microtiter plate at 4000 rpm for 10 min. Supernatants were applied to reverse phase HPLC on a Waters Symmetry C18 column, equipped with a Waters Sentry Guard column. Isocratic HPLC runs were performed at RT at a flow rate of 1 ml/min in acetonitrile:water 48:52 as running solvent. Radioactivity was monitored in the eluate by a Scintillation Analyzer. Total radioactivity for estrone and estradiol were determined in each sample and percent conversion of estradiol to estrone was calculated according to the following formula:
as §1

In assay [3] the test system is HSD1 enzyme that is expressed in rabbit placenta tissue. The experiment in a line: Inhibition of E1 to E2 conversion in rabbit placenta tissue homogenate. As to conditions: inhibitor 100 nM, 30 nM estrone, 30 min. The method, then: The assay is based on an enzymatic reaction where HSD1 enzyme that is expressed in rabbit placenta tissue converts its natural substance estrone (E1) to estradiol (E2) in the presence of a co-factor β-NADPH.
Homogenization of rabbit placenta tissue: Weight a piece of the frozen tissue into a Precellys ck28 bead tube. Add buffer solution (20 mM KH2PO4 with 1 mM EDTA, pH 7,4) in 1:2 ratio (e.g. 300 mg of tissue:600 μl reaction buffer solution). Insert the bead tubes to homogenizer and homogenize 2×30 s. 6000 rpm. Centrifugated 5 min., 2600 rpm at +4° C. and collect supernatant. Aliquots of homogenate are stored in −80° C.
Assay—Inhibition of E1 to E2 conversion in rabbit placenta tissue: The reaction takes place in a buffer solution (20 mM KH2PO4 with 1 mM EDTA, pH 7,4), including appropriate amount of rabbit placenta homogenate, co-factor (1 mM β-NADPH), Substrate (30 nM estrone), labelled substrate as tracer (5 nM [^3H]-estrone). During a 30-minute incubation part of the estrone is converted to estradiol. The reaction is stopped by lowering the pH to 1 with 10% trichloro acetic acid (TCA). The substrate and conversion products are analyzed by HPLC and a Scintillation counter analyzer. Total radioactivity for estrone and estradiol were determined in each sample and percent conversion of estrone to estradiol was calculated according to the following formula:
Percent inhibition was calculated flowingly: % inhibition=100−% conversion.

Regarding `C[C@]12CCC3c4cccc(F)c4CCC3C1[C@H](CCC(=O)Nc1cc(F)ccn1)C/C2=N\O` (stereo partly drawn) [Compound 140, 3-((13S,15R,E)-4-fluoro-17-(hydroxyimino)-13-methyl-7,8,9,11,12,13,14,15,16,17-decahydro-6H-cyclopenta[a]phenanthren-15-yl)-N-(4-fluoropyridin-2-yl)propanamide], the inhibition – broadly, the relative decrease from the control value, in per cent – at 0.1 µM in assay [1] was found to be 86%. Moreover, the inhibition at 1 µM in assay [2] was 6%. Moreover, the “Rabbit placenta inhibition % @100 nM” value in assay [3] is 24%.

In the case of `C[C@]12CCC3c4cccc(F)c4CCC3C1[C@H](CCC(=O)Nc1nncs1)C/C2=N\O` (stereo partly drawn) [Compound 18, 3-((13S,15R,E)-4-fluoro-17-(hydroxyimino)-13-methyl-7,8,9,11,12,13,14,15,16,17-decahydro-6H-cyclopenta[a]phenanthren-15-yl)-N-(1,3,4-thiadiazol-2-yl)propanamide], in assay [1], the inhibition at 0.1 µM stood at 68%. The inhibition at 1 µM in assay [2] amounted to 14%. In addition, the “Rabbit placenta inhibition % @100 nM” value in assay [3] is 62%.

`C[C@]12CCC3c4ccc(Cl)cc4CCC3C1[C@H](CCC(=O)Nc1cccc(F)n1)C/C2=N\O` (stereo partly drawn) [Compound 170, 3-((13S,15R,E)-3-chloro-17-(hydroxyimino)-13-methyl-7,8,9,11,12,13,14,15,16,17-decahydro-6H-cyclopenta[a]phenanthren-15-yl)-N-(6-fluoropyridin-2-yl)propanamide]: the inhibition at 0.1 µM in assay [1] was determined as 34%. In assay [2], the inhibition at 1 µM was 12%. Further, the “Rabbit placenta inhibition % @100 nM” value in assay [3] worked out at 13%.

Consider `CN1CCN(c2ccc(NC(=O)CC[C@@H]3C/C(=N\O)[C@@]4(C)CCC5c6cccc(F)c6CCC5C34)nc2)CC1` (stereo partly drawn) [Compound 116, 3-((13S,15R,E)-4-fluoro-17-(hydroxyimino)-13-methyl-7,8,9,11,12,13,14,15,16,17-decahydro-6H-cyclopenta[a]phenanthren-15-yl)-N-(5-(4-methylpiperazin-1-yl)pyridin-2-yl)propanamide], for which, in assay [1], the inhibition at 0.1 µM amounted to 85%. For the same molecule, in assay [2], the inhibition at 1 µM was 26%. In addition, the “Rabbit placenta inhibition % @100 nM” value in assay [3] came to 76%.

Take `C[C@]12CCC3c4ccc(Cl)cc4CCC3C1[C@H](CCC(=O)Nc1ccccn1)C/C2=N\O` (stereo partly drawn) [Compound 68, 3-((13S,15R,E)-3-chloro-17-(hydroxyimino)-13-methyl-7,8,9,11,12,13,14,15,16,17-decahydro-6H-cyclopenta[a]phenanthren-15-yl)-N-(pyridin-2-yl)propanamide]: in assay [1], the inhibition at 0.1 µM came to 67%. The inhibition at 1 µM in assay [2] was determined as 3%. Further, in assay [3], the “Rabbit placenta inhibition % @100 nM” value was determined as 12%.

Regarding `CN(C)C(=O)c1ccc(NC(=O)CC[C@@H]2C/C(=N\O)[C@@]3(C)CCC4c5ccccc5CCC4C23)nc1` (stereo partly drawn) [Compound 92, 6-(3-((13S,15R,E)-17-(hydroxyimino)-13-methyl-7,8,9,11,12,13,14,15,16,17-decahydro-6H-cyclopenta[a]phenanthren-15-yl)propanamido)-N,N-dimethylnicotinamide], the inhibition at 0.1 µM in assay [1] came to 37%. The inhibition at 1 µM in assay [2] was found to be 9%. In addition, the “Rabbit placenta inhibition % @100 nM” value in assay [3] turned out to be 15%.

On to `C[C@]12CCC3c4cccc(F)c4CCC3C1[C@H](CCC(=O)N1CCC3(CCOCC3)C1)C/C2=N\O` (stereo partly drawn) [Compound 128, 3-((13S,15R,E)-4-fluoro-17-(hydroxyimino)-13-methyl-7,8,9,11,12,13,14,15,16,17-decahydro-6H-cyclopenta[a]phenanthren-15-yl)-1-(8-oxa-2-azaspiro[4.5]decan-2-yl)propan-1-one], for which the inhibition at 0.1 µM in assay [1] is 59%. Further, in assay [2], the inhibition at 1 µM was determined as 6%. Moreover, the “Rabbit placenta inhibition % @100 nM” value in assay [3] is on record as 2%.

As for `C[C@]12CCC3c4ccccc4CCC3C1[C@H](CCC(=O)Nc1ncccc1O)C/C2=N\O` (stereo partly drawn) [Compound 102, 3-((13S,15R,E)-17-(hydroxyimino)-13-methyl-7,8,9,11,12,13,14,15,16,17-decahydro-6H-cyclopenta[a]phenanthren-15-yl)-N-(3-hydroxypyridin-2-yl)propanamide], the inhibition at 0.1 µM in assay [1] was 57%. Also, in assay [2], the inhibition at 1 µM worked out at 20%. The “Rabbit placenta inhibition % @100 nM” value in assay [3] is recorded as 1%.

For the molecule `Cc1ccc(NC(=O)CC[C@@H]2C/C(=N\O)[C@@]3(C)CCC4c5cccc(F)c5CCC4C23)nn1` (stereo partly drawn) [Compound 16, 3-((13S,15R,E)-4-fluoro-17-(hydroxyimino)-13-methyl-7,8,9,11,12,13,14,15,16,17-decahydro-6H-cyclopenta[a]phenanthren-15-yl)-N-(6-methylpyridazin-3-yl) propanamide], in assay [1], the inhibition at 0.1 µM amounted to 79%. In assay [2], the inhibition at 1 µM was found to be 9%. For the same molecule, the “Rabbit placenta inhibition % @100 nM” value in assay [3] was 81%.

As for `C[C@]12CCC3c4cccc(F)c4CCC3C1[C@H](CCC(=O)Nc1ccc(C#N)cn1)C/C2=N\O` (stereo partly drawn) [Compound 148, N-(5-cyanopyridin-2-yl)-3-((13S,15R,E)-4-fluoro-17-(hydroxyimino)-13-methyl-7,8,9,11,12,13,14,15,16,17-decahydro-6H-cyclopenta[a]phenanthren-15-yl)propanamide], the inhibition at 0.1 µM in assay [1] was determined as 90%. Moreover, the inhibition at 1 µM in assay [2] is 9%. In addition, the “Rabbit placenta inhibition % @100 nM” value in assay [3] was 35%.

The values above are taken from patent US20240309043A1, “THERAPEUTICALLY ACTIVE STEROIDAL DERIVATIVES” (Organon R&D Finland Ltd., priority 2017, published 2024).
